Tests used:
Assay in all cases: radiometric filter-binding kinase assay, Kinase HotSpot
CSNK2A1 (human) = CSNK2A1 (human) (UniProt P68400); settings: compound 0.5 µM; ATP 10 µM
FGFR1 (human) = FGFR1 (human) (UniProt P11362); settings: compound 0.5 µM; ATP 10 µM
PRKACA (human) = PRKACA (human) (UniProt P17612); settings: compound 0.5 µM
BMX (human) = BMX (human) (UniProt P51813); settings: compound 0.5 µM; ATP 10 µM
MAP2K1 (human) = MAP2K1 (human) (UniProt Q02750); settings: compound 0.5 µM; ATP 10 µM
GSG2 (human) = GSG2 (human) (UniProt Q8TF76); settings: compound 0.5 µM; ATP 10 µM
CDK1 CCNA2 (human) = CDK1 CCNA2 (human) (UniProt P06493+P20248); settings: compound 0.5 µM
NEK2 (human) = NEK2 (human) (UniProt P51955); settings: compound 0.5 µM; ATP 10 µM
ITK (human) = ITK (human) (UniProt Q08881); settings: compound 0.5 µM; ATP 10 µM
STK3 (human) = STK3 (human) (UniProt Q13188); settings: compound 0.5 µM; ATP 10 µM
GSK3A (human) = GSK3A (human) (UniProt P49840); settings: compound 0.5 µM; ATP 10 µM
[1] = tested on: SGK1 (human), O00141 [S422D]; settings: compound 0.5 µM; ATP 10 µM
CDK7 CCNH MNAT1 (human) = CDK7 CCNH MNAT1 (human) (UniProt P50613+P51948+P51946); settings: compound 0.5 µM
LIMK1 (human) = LIMK1 (human) (UniProt P53667); settings: compound 0.5 µM; ATP 10 µM
MAPK10 (human) = MAPK10 (human) (UniProt P53779); settings: compound 0.5 µM; ATP 10 µM
DYRK3 (human) = DYRK3 (human) (UniProt O43781); settings: compound 0.5 µM; ATP 10 µM
RPS6KA6 KD1 KD2 (human) = RPS6KA6 KD1 KD2 (human) (UniProt Q9UK32); settings: compound 0.5 µM; ATP 10 µM
PHKG1 (human) = PHKG1 (human) (UniProt Q16816); settings: compound 0.5 µM; ATP 10 µM
MARK1 (human) = MARK1 (human) (UniProt Q9P0L2); settings: compound 0.5 µM; ATP 10 µM
MAP2K2 (human) = MAP2K2 (human) (UniProt P36507); settings: compound 0.5 µM; ATP 10 µM
PRKCE (human) = PRKCE (human) (UniProt Q02156); settings: compound 0.5 µM; ATP 10 µM
CDK2 CCNE1 (human) = CDK2 CCNE1 (human) (UniProt P24941+P24864); settings: compound 0.5 µM
EPHA2 (human) = EPHA2 (human) (UniProt P29317); settings: compound 0.5 µM; ATP 10 µM
EPHA1 (human) = EPHA1 (human) (UniProt P21709); settings: compound 0.5 µM; ATP 10 µM
DMPK (human) = DMPK (human) (UniProt Q09013); settings: compound 0.5 µM; ATP 10 µM
FLT3 (human) = FLT3 (human) (UniProt P36888); settings: compound 0.5 µM; ATP 10 µM
CSNK2A2 (human) = CSNK2A2 (human) (UniProt P19784); settings: compound 0.5 µM; ATP 10 µM
STK4 (human) = STK4 (human) (UniProt Q13043); settings: compound 0.5 µM; ATP 10 µM
CSNK1G3 (human) = CSNK1G3 (human) (UniProt Q9Y6M4); settings: compound 0.5 µM; ATP 10 µM
NTRK2 (human) = NTRK2 (human) (UniProt Q16620); settings: compound 0.5 µM; ATP 10 µM
MAP3K9 (human) = MAP3K9 (human) (UniProt P80192); settings: compound 0.5 µM; ATP 10 µM
AURKC (human) = AURKC (human) (UniProt Q9UQB9); settings: compound 0.5 µM; ATP 10 µM
TXK (human) = TXK (human) (UniProt P42681); settings: compound 0.5 µM; ATP 10 µM
RPS6KA4 KD2 (human) = RPS6KA4 KD2 (human) (UniProt O75676); settings: compound 0.5 µM; ATP 10 µM
PTK2B (human) = PTK2B (human) (UniProt Q14289); settings: compound 0.5 µM; ATP 10 µM
BLK (human) = BLK (human) (UniProt P51451); settings: compound 0.5 µM; ATP 10 µM
NTRK3 (human) = NTRK3 (human) (UniProt Q16288); settings: compound 0.5 µM; ATP 10 µM
SRPK2 (human) = SRPK2 (human) (UniProt P78362); settings: compound 0.5 µM; ATP 10 µM
BRSK2 (human) = BRSK2 (human) (UniProt Q8IWQ3); settings: compound 0.5 µM; ATP 10 µM
INSR (human) = INSR (human) (UniProt P06213); settings: compound 0.5 µM; ATP 10 µM
WNK3 (human) = WNK3 (human) (UniProt Q9BYP7); settings: compound 0.5 µM; ATP 10 µM
MAP4K5 (human) = MAP4K5 (human) (UniProt Q9Y4K4); settings: compound 0.5 µM; ATP 10 µM

STK4 (human), sequence (Q13043 whole entry, looked up): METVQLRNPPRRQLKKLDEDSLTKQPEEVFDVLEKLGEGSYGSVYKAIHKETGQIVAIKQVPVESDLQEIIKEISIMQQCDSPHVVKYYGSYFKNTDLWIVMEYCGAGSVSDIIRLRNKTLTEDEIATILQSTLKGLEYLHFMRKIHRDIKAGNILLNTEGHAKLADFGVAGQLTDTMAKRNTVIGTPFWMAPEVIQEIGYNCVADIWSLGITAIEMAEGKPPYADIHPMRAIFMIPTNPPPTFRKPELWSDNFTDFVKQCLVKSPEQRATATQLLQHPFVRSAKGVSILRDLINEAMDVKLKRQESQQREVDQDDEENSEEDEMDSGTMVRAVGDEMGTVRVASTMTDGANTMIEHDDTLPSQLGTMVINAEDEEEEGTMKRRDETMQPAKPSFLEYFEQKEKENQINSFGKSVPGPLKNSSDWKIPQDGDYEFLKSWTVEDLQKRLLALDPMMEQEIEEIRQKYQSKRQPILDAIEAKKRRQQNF
FLT3 (human), sequence (P36888 whole entry, looked up): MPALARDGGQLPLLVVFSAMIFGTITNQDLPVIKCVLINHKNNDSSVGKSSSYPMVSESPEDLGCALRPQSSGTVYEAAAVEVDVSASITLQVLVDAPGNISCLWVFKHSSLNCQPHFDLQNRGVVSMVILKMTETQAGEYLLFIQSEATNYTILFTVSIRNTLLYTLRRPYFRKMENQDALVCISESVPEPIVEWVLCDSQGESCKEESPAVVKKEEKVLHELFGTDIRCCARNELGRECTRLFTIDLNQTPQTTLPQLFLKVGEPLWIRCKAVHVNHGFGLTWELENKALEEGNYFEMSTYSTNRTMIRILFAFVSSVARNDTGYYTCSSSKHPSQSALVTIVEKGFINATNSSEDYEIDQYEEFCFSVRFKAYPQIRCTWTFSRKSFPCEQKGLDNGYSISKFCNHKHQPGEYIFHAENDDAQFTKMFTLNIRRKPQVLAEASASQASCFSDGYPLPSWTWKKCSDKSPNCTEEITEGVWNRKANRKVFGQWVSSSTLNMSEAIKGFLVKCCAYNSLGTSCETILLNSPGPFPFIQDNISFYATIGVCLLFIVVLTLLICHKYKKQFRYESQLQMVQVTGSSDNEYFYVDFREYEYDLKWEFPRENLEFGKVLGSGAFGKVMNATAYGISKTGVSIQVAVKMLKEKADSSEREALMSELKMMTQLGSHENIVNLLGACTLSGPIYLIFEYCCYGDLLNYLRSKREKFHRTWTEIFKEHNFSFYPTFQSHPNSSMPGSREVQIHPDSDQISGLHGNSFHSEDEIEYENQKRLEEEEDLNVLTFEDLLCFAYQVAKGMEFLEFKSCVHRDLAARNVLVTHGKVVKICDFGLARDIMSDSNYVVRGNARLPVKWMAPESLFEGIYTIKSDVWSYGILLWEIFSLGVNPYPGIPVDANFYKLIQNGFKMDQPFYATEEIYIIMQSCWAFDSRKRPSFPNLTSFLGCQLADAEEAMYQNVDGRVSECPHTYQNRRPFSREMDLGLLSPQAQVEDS
DYRK3 (human), sequence (O43781 whole entry, looked up): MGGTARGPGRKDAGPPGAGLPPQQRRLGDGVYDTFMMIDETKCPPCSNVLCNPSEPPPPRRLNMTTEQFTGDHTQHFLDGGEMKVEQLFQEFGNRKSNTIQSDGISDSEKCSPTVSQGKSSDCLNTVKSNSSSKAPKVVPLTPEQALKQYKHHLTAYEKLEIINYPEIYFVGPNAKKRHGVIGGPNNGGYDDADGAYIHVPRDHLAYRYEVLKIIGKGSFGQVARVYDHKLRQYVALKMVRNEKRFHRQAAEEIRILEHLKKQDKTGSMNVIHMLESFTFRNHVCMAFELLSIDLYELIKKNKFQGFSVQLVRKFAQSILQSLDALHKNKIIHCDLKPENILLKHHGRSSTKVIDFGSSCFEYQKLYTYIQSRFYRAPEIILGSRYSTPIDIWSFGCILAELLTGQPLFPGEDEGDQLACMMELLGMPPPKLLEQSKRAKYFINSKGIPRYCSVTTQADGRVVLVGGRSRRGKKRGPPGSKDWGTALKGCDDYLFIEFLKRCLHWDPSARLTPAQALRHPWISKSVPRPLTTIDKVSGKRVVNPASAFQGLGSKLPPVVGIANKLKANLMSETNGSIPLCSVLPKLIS
MAPK10 (human), sequence (P53779 whole entry, looked up): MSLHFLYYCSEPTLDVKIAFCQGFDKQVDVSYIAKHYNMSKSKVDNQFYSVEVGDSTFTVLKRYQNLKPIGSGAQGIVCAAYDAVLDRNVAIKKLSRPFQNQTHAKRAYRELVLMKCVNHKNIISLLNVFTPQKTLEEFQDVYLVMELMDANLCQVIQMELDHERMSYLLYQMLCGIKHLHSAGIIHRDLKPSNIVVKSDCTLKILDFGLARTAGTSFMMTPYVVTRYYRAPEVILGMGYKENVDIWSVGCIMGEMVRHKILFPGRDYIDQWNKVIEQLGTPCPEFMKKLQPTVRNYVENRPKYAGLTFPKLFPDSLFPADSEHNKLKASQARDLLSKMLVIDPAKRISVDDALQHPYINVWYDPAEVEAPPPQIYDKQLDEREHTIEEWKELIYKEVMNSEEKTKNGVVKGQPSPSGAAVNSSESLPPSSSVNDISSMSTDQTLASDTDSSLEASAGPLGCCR
PHKG1 (human), sequence (Q16816 whole entry, looked up): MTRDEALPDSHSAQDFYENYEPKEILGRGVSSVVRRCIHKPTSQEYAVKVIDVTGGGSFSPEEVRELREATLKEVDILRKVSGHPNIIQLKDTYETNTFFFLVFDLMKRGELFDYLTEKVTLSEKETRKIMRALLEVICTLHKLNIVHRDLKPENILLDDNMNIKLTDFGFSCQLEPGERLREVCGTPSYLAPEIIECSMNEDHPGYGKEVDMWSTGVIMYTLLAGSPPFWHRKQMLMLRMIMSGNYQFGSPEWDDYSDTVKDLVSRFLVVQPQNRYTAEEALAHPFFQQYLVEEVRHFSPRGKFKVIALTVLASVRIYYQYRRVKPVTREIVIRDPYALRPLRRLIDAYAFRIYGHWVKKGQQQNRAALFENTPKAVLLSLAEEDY
INSR (human), sequence (P06213 whole entry, looked up): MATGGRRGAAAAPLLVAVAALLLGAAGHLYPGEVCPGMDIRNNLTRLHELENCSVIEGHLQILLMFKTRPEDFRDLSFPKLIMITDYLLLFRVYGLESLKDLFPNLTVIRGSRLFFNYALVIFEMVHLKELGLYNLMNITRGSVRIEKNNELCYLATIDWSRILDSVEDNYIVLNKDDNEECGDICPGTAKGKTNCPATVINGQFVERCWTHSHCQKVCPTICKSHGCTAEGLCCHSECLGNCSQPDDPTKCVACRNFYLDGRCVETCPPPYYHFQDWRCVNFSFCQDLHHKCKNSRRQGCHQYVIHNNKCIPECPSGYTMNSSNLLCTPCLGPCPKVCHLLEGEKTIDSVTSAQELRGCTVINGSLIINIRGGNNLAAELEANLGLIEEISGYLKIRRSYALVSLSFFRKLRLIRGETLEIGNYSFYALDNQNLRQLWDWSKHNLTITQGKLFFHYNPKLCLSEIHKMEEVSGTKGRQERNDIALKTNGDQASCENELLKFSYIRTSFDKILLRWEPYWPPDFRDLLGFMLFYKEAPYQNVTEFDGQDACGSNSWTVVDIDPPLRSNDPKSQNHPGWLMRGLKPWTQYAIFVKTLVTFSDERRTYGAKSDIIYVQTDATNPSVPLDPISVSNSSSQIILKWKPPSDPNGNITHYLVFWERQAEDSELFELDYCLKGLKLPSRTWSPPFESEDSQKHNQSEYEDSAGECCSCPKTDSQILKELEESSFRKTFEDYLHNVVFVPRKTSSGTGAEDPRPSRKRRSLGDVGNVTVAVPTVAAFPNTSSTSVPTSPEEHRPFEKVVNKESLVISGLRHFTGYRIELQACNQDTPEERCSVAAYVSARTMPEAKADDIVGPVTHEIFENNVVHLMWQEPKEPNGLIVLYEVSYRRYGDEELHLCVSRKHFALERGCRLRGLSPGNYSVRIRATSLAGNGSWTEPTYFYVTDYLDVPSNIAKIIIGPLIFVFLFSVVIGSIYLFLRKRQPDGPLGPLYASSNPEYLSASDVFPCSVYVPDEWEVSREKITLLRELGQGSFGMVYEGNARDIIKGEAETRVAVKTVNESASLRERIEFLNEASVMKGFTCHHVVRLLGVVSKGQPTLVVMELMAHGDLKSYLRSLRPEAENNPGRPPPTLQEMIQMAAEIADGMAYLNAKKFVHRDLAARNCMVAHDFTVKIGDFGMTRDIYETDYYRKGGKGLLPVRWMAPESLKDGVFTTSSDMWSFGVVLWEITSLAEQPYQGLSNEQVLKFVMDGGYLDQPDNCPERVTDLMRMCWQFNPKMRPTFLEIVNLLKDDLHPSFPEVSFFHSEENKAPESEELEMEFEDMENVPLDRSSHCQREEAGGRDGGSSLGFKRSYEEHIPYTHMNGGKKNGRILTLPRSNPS
BLK (human), sequence (P51451 whole entry, looked up): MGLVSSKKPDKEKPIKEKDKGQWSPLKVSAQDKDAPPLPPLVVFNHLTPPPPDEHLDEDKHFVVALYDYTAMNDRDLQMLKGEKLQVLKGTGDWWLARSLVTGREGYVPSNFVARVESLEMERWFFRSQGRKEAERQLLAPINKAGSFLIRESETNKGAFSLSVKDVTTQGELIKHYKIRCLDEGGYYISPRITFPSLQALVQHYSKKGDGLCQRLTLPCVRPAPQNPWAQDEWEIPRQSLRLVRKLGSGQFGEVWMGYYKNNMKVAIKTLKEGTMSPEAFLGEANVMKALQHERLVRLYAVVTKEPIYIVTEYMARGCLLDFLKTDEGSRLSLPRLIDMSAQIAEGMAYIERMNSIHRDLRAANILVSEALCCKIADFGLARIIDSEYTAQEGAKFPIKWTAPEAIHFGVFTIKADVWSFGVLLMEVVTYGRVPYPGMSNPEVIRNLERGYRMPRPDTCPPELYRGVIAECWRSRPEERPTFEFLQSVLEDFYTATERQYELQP

In the case of `CCCCc1c(-c2ccc(O)cc2)[nH]c2nccnc12`, the residual activity (CSNK2A1 (human)) is reported as 95.9%, the residual activity (FGFR1 (human)) is reported as 81.8% and the residual activity (PRKACA (human); ATP 10 µM) is reported as 89.7%. It also gave a residual activity (BMX (human)) of 86.8%, a residual activity (MAP2K1 (human)) of 94.8% and a residual activity (GSG2 (human)) of 65.3%. For the same molecule, the residual activity (CDK1 CCNA2 (human); ATP 10 µM) was 60.3%, the residual activity (NEK2 (human)) was 106% and the residual activity (ITK (human)) was 104%. The residual activity (STK3 (human)) was 76.6%, the residual activity (GSK3A (human)) was 57.7% and the residual activity [1] was 88.1%. The residual activity (CDK7 CCNH MNAT1 (human); ATP 10 µM) was 88.2%, the residual activity (LIMK1 (human)) was 64.3% and the residual activity (MAPK10 (human)) was 100%. For the same molecule, the residual activity (DYRK3 (human)) was 90.9%, the residual activity (RPS6KA6 KD1 KD2 (human)) was 72.7% and the residual activity (PHKG1 (human)) was 86.7%. For the same molecule, the residual activity (MARK1 (human)) was 91.9%, the residual activity (MAP2K2 (human)) was 84.7% and the residual activity (PRKCE (human)) was 107%. The residual activity (CDK2 CCNE1 (human); ATP 10 µM) was 29.9%, the residual activity (EPHA2 (human)) was 81.7% and the residual activity (EPHA1 (human)) was 68.8%. For the same molecule, the residual activity (DMPK (human)) was 91.8%, the residual activity (FLT3 (human)) was 45.3% and the residual activity (CSNK2A2 (human)) was 94.7%. For the same molecule, the residual activity (STK4 (human)) was 78.3%, the residual activity (CSNK1G3 (human)) was 82.3% and the residual activity (NTRK2 (human)) was 73.7%. The residual activity (MAP3K9 (human)) was 37.3%, the residual activity (AURKC (human)) was 44.9% and the residual activity (TXK (human)) was 65%. The residual activity (RPS6KA4 KD2 (human)) was 87.5%, the residual activity (PTK2B (human)) was 99% and the residual activity (BLK (human)) was 85%. The residual activity (NTRK3 (human)) was 76.1%, the residual activity (SRPK2 (human)) was 110% and the residual activity (BRSK2 (human)) was 87.2%. The residual activity (INSR (human)) was 99.6%, the residual activity (WNK3 (human)) was 90.3% and the residual activity (MAP4K5 (human)) was 65.3%.
`O=c1[nH]c2ccccc2n1C1CCN(Cc2ccc(-c3nc4cc5[nH]cnc5cc4nc3-c3ccccc3)cc2)CC1` gave a residual activity (CSNK2A1 (human)) of 94.3%, a residual activity (FGFR1 (human)) of 102% and a residual activity (PRKACA (human)) of 106%. For the same molecule, the residual activity (BMX (human)) was 108%, the residual activity (MAP2K1 (human)) was 96.8% and the residual activity (GSG2 (human)) was 106%. The residual activity (CDK1 CCNA2 (human)) was 102%, the residual activity (NEK2 (human)) was 96.8% and the residual activity (ITK (human)) was 99.8%. For the same molecule, the residual activity (STK3 (human)) was 103%, the residual activity (GSK3A (human)) was 100% and the residual activity [1] was 102%. The residual activity (CDK7 CCNH MNAT1 (human)) was 99.1%, the residual activity (LIMK1 (human)) was 110% and the residual activity (MAPK10 (human)) was 96%. The residual activity (DYRK3 (human)) was 101%, the residual activity (RPS6KA6 KD1 KD2 (human)) was 109% and the residual activity (PHKG1 (human)) was 106%. For the same molecule, the residual activity (MARK1 (human)) was 104%, the residual activity (MAP2K2 (human)) was 86.6% and the residual activity (PRKCE (human)) was 109%. The residual activity (CDK2 CCNE1 (human)) was 95.6%, the residual activity (EPHA2 (human)) was 103% and the residual activity (EPHA1 (human)) was 84.4%. It also gave a residual activity (DMPK (human)) of 98%, a residual activity (FLT3 (human)) of 94.6% and a residual activity (CSNK2A2 (human)) of 101%. The residual activity (STK4 (human)) was 95.2%, the residual activity (CSNK1G3 (human)) was 96.5% and the residual activity (NTRK2 (human)) was 99.4%. For the same molecule, the residual activity (MAP3K9 (human)) was 93.9%, the residual activity (AURKC (human)) was 96% and the residual activity (TXK (human)) was 104%. For the same molecule, the residual activity (RPS6KA4 KD2 (human)) was 98.8%, the residual activity (PTK2B (human)) was 105% and the residual activity (BLK (human)) was 106%. For the same molecule, the residual activity (NTRK3 (human)) was 116%, the residual activity (SRPK2 (human)) was 116% and the residual activity (BRSK2 (human)) was 106%. It also gave a residual activity (INSR (human)) of 102%, a residual activity (WNK3 (human)) of 106% and a residual activity (MAP4K5 (human)) of 91.9%.
For `Cc1cc(Nc2nc(-c3ccccc3)nc3ccccc23)n[nH]1`, the residual activity (CSNK2A1 (human)) was 27%, the residual activity (FGFR1 (human)) was 48.8% and the residual activity (PRKACA (human); ATP 10 µM) was 97.2%. For the same molecule, the residual activity (BMX (human)) was 41.1%, the residual activity (MAP2K1 (human)) was 91.6% and the residual activity (GSG2 (human)) was 90.5%. For the same molecule, the residual activity (CDK1 CCNA2 (human); ATP 10 µM) was 95%, the residual activity (NEK2 (human)) was 99.3% and the residual activity (ITK (human)) was 45.4%. It also gave a residual activity (STK3 (human)) of 58.5%, a residual activity (GSK3A (human)) of 11.3% and a residual activity [1] of 95.5%. It also gave a residual activity (CDK7 CCNH MNAT1 (human); ATP 10 µM) of 73.3%, a residual activity (LIMK1 (human)) of 59.6% and a residual activity (MAPK10 (human)) of 88.7%. For the same molecule, the residual activity (DYRK3 (human)) was 81.9%, the residual activity (RPS6KA6 KD1 KD2 (human)) was 56.3% and the residual activity (PHKG1 (human)) was 71.7%. It also gave a residual activity (MARK1 (human)) of 93.7%, a residual activity (MAP2K2 (human)) of 102% and a residual activity (PRKCE (human)) of 87.1%. For the same molecule, the residual activity (CDK2 CCNE1 (human); ATP 10 µM) was 75.4%, the residual activity (EPHA2 (human)) was 94.8% and the residual activity (EPHA1 (human)) was 69.9%. For the same molecule, the residual activity (DMPK (human)) was 100%, the residual activity (FLT3 (human)) was 10.5% and the residual activity (CSNK2A2 (human)) was 15%. It also gave a residual activity (STK4 (human)) of 58%, a residual activity (CSNK1G3 (human)) of 75% and a residual activity (NTRK2 (human)) of 4.37%. It also gave a residual activity (MAP3K9 (human)) of 14.8%, a residual activity (AURKC (human)) of 51.8% and a residual activity (TXK (human)) of 45.3%. The residual activity (RPS6KA4 KD2 (human)) was 108%, the residual activity (PTK2B (human)) was 61.4% and the residual activity (BLK (human)) was 56.2%. The residual activity (NTRK3 (human)) was 2.01%, the residual activity (SRPK2 (human)) was 68.8% and the residual activity (BRSK2 (human)) was 61.4%. For the same molecule, the residual activity (INSR (human)) was 31.6%, the residual activity (WNK3 (human)) was 74.9% and the residual activity (MAP4K5 (human)) was 20.2%.
